Results: the supplement of paper PMC8882468

What follows are compounds tested on HCI-019 (organoid from a triple-negative breast cancer xenograft) (assay: CTG-3D luminescence at 96 h relative to day-0 seeding control (ratio to day 0); higher = more growth / less cytotoxicity; PDxO 3D drug screen (set 2), 96 h, CTG-3D normalised to day-0 seeding control.). Conditions: 0.005 µM; days in culture: 194.
With `Cc1c(CN2CCN(C(=O)[C@H](C)O)CC2)sc2c(N3CCOCC3)nc(-c3cnc(N)nc3)nc12` [apitolisib] the “CTG-3D luminescence at 96 h” value was 2.18. In the case of `CS(=O)(=O)CCNCc1ccc(-c2ccc3ncnc(Nc4ccc(OCc5cccc(F)c5)c(Cl)c4)c3c2)o1` [lapatinib], the “CTG-3D luminescence at 96 h” value is reported as 1.45. With `CCOc1ccn(-c2ccc(F)cc2)c(=O)c1C(=O)Nc1ccc(Oc2ccnc(N)c2Cl)c(F)c1` [ASLAN002] the “CTG-3D luminescence at 96 h” value was 0.978. In the case of `Nc1cc(C(F)(F)F)c(-c2cc(N3CCOCC3)nc(N3CCOCC3)n2)cn1` [buparlisib], the “CTG-3D luminescence at 96 h” value is reported as 2.05.

Same assay, conditions: 0.005 µM; days in culture: 215
In the case of `CC(C)n1nc(-c2ccc3oc(N)nc3c2)c2c(N)ncnc21` [sapanisertib], the “CTG-3D luminescence at 96 h” value is reported as 1.14. For `C[C@@H](Nc1cc(F)cc(F)c1)c1cc(C(=O)N(C)C)cc2c(=O)cc(N3CCOCC3)oc12` [AZD-8186], the “CTG-3D luminescence at 96 h” value was 0.854. `CC(=O)c1c(C)c2cnc(Nc3ccc(N4CCNCC4)cn3)nc2n(C2CCCC2)c1=O` [palbociclib] was tested, and the “CTG-3D luminescence at 96 h” value was 2.06. For `Cc1c(CN2CCN(C(=O)[C@H](C)O)CC2)sc2c(N3CCOCC3)nc(-c3cnc(N)nc3)nc12` [apitolisib], the “CTG-3D luminescence at 96 h” value was 1.51. With `CS(=O)(=O)CCNCc1ccc(-c2ccc3ncnc(Nc4ccc(OCc5cccc(F)c5)c(Cl)c4)c3c2)o1` [lapatinib] the “CTG-3D luminescence at 96 h” value was 1.85. In the case of `CCOc1ccn(-c2ccc(F)cc2)c(=O)c1C(=O)Nc1ccc(Oc2ccnc(N)c2Cl)c(F)c1` [ASLAN002], the “CTG-3D luminescence at 96 h” value is reported as 1.22. `Nc1cc(C(F)(F)F)c(-c2cc(N3CCOCC3)nc(N3CCOCC3)n2)cn1` [buparlisib] was tested, and the “CTG-3D luminescence at 96 h” value was 1.46.

Same assay, conditions: 0.1 µM; days in culture: 173
With `CC(C)n1nc(-c2ccc3oc(N)nc3c2)c2c(N)ncnc21` [sapanisertib] the “CTG-3D luminescence at 96 h” value was 1.01. `C[C@@H](Nc1cc(F)cc(F)c1)c1cc(C(=O)N(C)C)cc2c(=O)cc(N3CCOCC3)oc12` [AZD-8186] was tested, and the “CTG-3D luminescence at 96 h” value was 2.98. With `CC(=O)c1c(C)c2cnc(Nc3ccc(N4CCNCC4)cn3)nc2n(C2CCCC2)c1=O` [palbociclib] the “CTG-3D luminescence at 96 h” value was 2.55. `Cc1c(CN2CCN(C(=O)[C@H](C)O)CC2)sc2c(N3CCOCC3)nc(-c3cnc(N)nc3)nc12` [apitolisib] was tested, and the “CTG-3D luminescence at 96 h” value was 2.29. `CS(=O)(=O)CCNCc1ccc(-c2ccc3ncnc(Nc4ccc(OCc5cccc(F)c5)c(Cl)c4)c3c2)o1` [lapatinib] was tested, and the “CTG-3D luminescence at 96 h” value was 2.61. In the case of `CCOc1ccn(-c2ccc(F)cc2)c(=O)c1C(=O)Nc1ccc(Oc2ccnc(N)c2Cl)c(F)c1` [ASLAN002], the “CTG-3D luminescence at 96 h” value is reported as 3.51. For `Nc1cc(C(F)(F)F)c(-c2cc(N3CCOCC3)nc(N3CCOCC3)n2)cn1` [buparlisib], the “CTG-3D luminescence at 96 h” value was 1.58.

Same assay, conditions: 0.1 µM; days in culture: 194
In the case of `CC(C)n1nc(-c2ccc3oc(N)nc3c2)c2c(N)ncnc21` [sapanisertib], the “CTG-3D luminescence at 96 h” value is reported as 0.737. For `C[C@@H](Nc1cc(F)cc(F)c1)c1cc(C(=O)N(C)C)cc2c(=O)cc(N3CCOCC3)oc12` [AZD-8186], the “CTG-3D luminescence at 96 h” value was 2.1. With `CC(=O)c1c(C)c2cnc(Nc3ccc(N4CCNCC4)cn3)nc2n(C2CCCC2)c1=O` [palbociclib] the “CTG-3D luminescence at 96 h” value was 2.76. In the case of `Cc1c(CN2CCN(C(=O)[C@H](C)O)CC2)sc2c(N3CCOCC3)nc(-c3cnc(N)nc3)nc12` [apitolisib], the “CTG-3D luminescence at 96 h” value is reported as 0.828. With `CS(=O)(=O)CCNCc1ccc(-c2ccc3ncnc(Nc4ccc(OCc5cccc(F)c5)c(Cl)c4)c3c2)o1` [lapatinib] the “CTG-3D luminescence at 96 h” value was 2.84. With `CCOc1ccn(-c2ccc(F)cc2)c(=O)c1C(=O)Nc1ccc(Oc2ccnc(N)c2Cl)c(F)c1` [ASLAN002] the “CTG-3D luminescence at 96 h” value was 1.46. In the case of `Nc1cc(C(F)(F)F)c(-c2cc(N3CCOCC3)nc(N3CCOCC3)n2)cn1` [buparlisib], the “CTG-3D luminescence at 96 h” value is reported as 2.27.

Same assay, conditions: 0.1 µM; days in culture: 215
For `CC(C)n1nc(-c2ccc3oc(N)nc3c2)c2c(N)ncnc21` [sapanisertib], the “CTG-3D luminescence at 96 h” value was 0.664. With `C[C@@H](Nc1cc(F)cc(F)c1)c1cc(C(=O)N(C)C)cc2c(=O)cc(N3CCOCC3)oc12` [AZD-8186] the “CTG-3D luminescence at 96 h” value was 1.62. With `CC(=O)c1c(C)c2cnc(Nc3ccc(N4CCNCC4)cn3)nc2n(C2CCCC2)c1=O` [palbociclib] the “CTG-3D luminescence at 96 h” value was 1.48. For `Cc1c(CN2CCN(C(=O)[C@H](C)O)CC2)sc2c(N3CCOCC3)nc(-c3cnc(N)nc3)nc12` [apitolisib], the “CTG-3D luminescence at 96 h” value was 0.699. For `CS(=O)(=O)CCNCc1ccc(-c2ccc3ncnc(Nc4ccc(OCc5cccc(F)c5)c(Cl)c4)c3c2)o1` [lapatinib], the “CTG-3D luminescence at 96 h” value was 1.67. With `CCOc1ccn(-c2ccc(F)cc2)c(=O)c1C(=O)Nc1ccc(Oc2ccnc(N)c2Cl)c(F)c1` [ASLAN002] the “CTG-3D luminescence at 96 h” value was 1.28. `Nc1cc(C(F)(F)F)c(-c2cc(N3CCOCC3)nc(N3CCOCC3)n2)cn1` [buparlisib] was tested, and the “CTG-3D luminescence at 96 h” value was 1.85.

Same assay, conditions: 1 µM; days in culture: 173
For `CC(C)n1nc(-c2ccc3oc(N)nc3c2)c2c(N)ncnc21` [sapanisertib], the “CTG-3D luminescence at 96 h” value was 0.438. For `C[C@@H](Nc1cc(F)cc(F)c1)c1cc(C(=O)N(C)C)cc2c(=O)cc(N3CCOCC3)oc12` [AZD-8186], the “CTG-3D luminescence at 96 h” value was 2.28. `CC(=O)c1c(C)c2cnc(Nc3ccc(N4CCNCC4)cn3)nc2n(C2CCCC2)c1=O` [palbociclib] was tested, and the “CTG-3D luminescence at 96 h” value was 2.78. `Cc1c(CN2CCN(C(=O)[C@H](C)O)CC2)sc2c(N3CCOCC3)nc(-c3cnc(N)nc3)nc12` [apitolisib] was tested, and the “CTG-3D luminescence at 96 h” value was 0.88. With `CS(=O)(=O)CCNCc1ccc(-c2ccc3ncnc(Nc4ccc(OCc5cccc(F)c5)c(Cl)c4)c3c2)o1` [lapatinib] the “CTG-3D luminescence at 96 h” value was 1.9. With `CCOc1ccn(-c2ccc(F)cc2)c(=O)c1C(=O)Nc1ccc(Oc2ccnc(N)c2Cl)c(F)c1` [ASLAN002] the “CTG-3D luminescence at 96 h” value was 1.6. `Nc1cc(C(F)(F)F)c(-c2cc(N3CCOCC3)nc(N3CCOCC3)n2)cn1` [buparlisib] was tested, and the “CTG-3D luminescence at 96 h” value was 1.45.

Same assay, conditions: 1 µM; days in culture: 194
In the case of `CC(C)n1nc(-c2ccc3oc(N)nc3c2)c2c(N)ncnc21` [sapanisertib], the “CTG-3D luminescence at 96 h” value is reported as 0.441. `C[C@@H](Nc1cc(F)cc(F)c1)c1cc(C(=O)N(C)C)cc2c(=O)cc(N3CCOCC3)oc12` [AZD-8186] was tested, and the “CTG-3D luminescence at 96 h” value was 1.87. With `CC(=O)c1c(C)c2cnc(Nc3ccc(N4CCNCC4)cn3)nc2n(C2CCCC2)c1=O` [palbociclib] the “CTG-3D luminescence at 96 h” value was 2.08. In the case of `Cc1c(CN2CCN(C(=O)[C@H](C)O)CC2)sc2c(N3CCOCC3)nc(-c3cnc(N)nc3)nc12` [apitolisib], the “CTG-3D luminescence at 96 h” value is reported as 0.744. With `CS(=O)(=O)CCNCc1ccc(-c2ccc3ncnc(Nc4ccc(OCc5cccc(F)c5)c(Cl)c4)c3c2)o1` [lapatinib] the “CTG-3D luminescence at 96 h” value was 1.7. `CCOc1ccn(-c2ccc(F)cc2)c(=O)c1C(=O)Nc1ccc(Oc2ccnc(N)c2Cl)c(F)c1` [ASLAN002] was tested, and the “CTG-3D luminescence at 96 h” value was 0.851. In the case of `Nc1cc(C(F)(F)F)c(-c2cc(N3CCOCC3)nc(N3CCOCC3)n2)cn1` [buparlisib], the “CTG-3D luminescence at 96 h” value is reported as 0.78.

Same assay, conditions: 1 µM; days in culture: 215
In the case of `CC(C)n1nc(-c2ccc3oc(N)nc3c2)c2c(N)ncnc21` [sapanisertib], the “CTG-3D luminescence at 96 h” value is reported as 0.531. `C[C@@H](Nc1cc(F)cc(F)c1)c1cc(C(=O)N(C)C)cc2c(=O)cc(N3CCOCC3)oc12` [AZD-8186] was tested, and the “CTG-3D luminescence at 96 h” value was 0.82. In the case of `CC(=O)c1c(C)c2cnc(Nc3ccc(N4CCNCC4)cn3)nc2n(C2CCCC2)c1=O` [palbociclib], the “CTG-3D luminescence at 96 h” value is reported as 1.83. `Cc1c(CN2CCN(C(=O)[C@H](C)O)CC2)sc2c(N3CCOCC3)nc(-c3cnc(N)nc3)nc12` [apitolisib] was tested, and the “CTG-3D luminescence at 96 h” value was 0.362. `CS(=O)(=O)CCNCc1ccc(-c2ccc3ncnc(Nc4ccc(OCc5cccc(F)c5)c(Cl)c4)c3c2)o1` [lapatinib] was tested, and the “CTG-3D luminescence at 96 h” value was 1.66. For `CCOc1ccn(-c2ccc(F)cc2)c(=O)c1C(=O)Nc1ccc(Oc2ccnc(N)c2Cl)c(F)c1` [ASLAN002], the “CTG-3D luminescence at 96 h” value was 2.09. With `Nc1cc(C(F)(F)F)c(-c2cc(N3CCOCC3)nc(N3CCOCC3)n2)cn1` [buparlisib] the “CTG-3D luminescence at 96 h” value was 0.763.

Same assay, conditions: 10 µM; days in culture: 173
With `CC(C)n1nc(-c2ccc3oc(N)nc3c2)c2c(N)ncnc21` [sapanisertib] the “CTG-3D luminescence at 96 h” value was 0.352. In the case of `C[C@@H](Nc1cc(F)cc(F)c1)c1cc(C(=O)N(C)C)cc2c(=O)cc(N3CCOCC3)oc12` [AZD-8186], the “CTG-3D luminescence at 96 h” value is reported as 0.532. In the case of `CC(=O)c1c(C)c2cnc(Nc3ccc(N4CCNCC4)cn3)nc2n(C2CCCC2)c1=O` [palbociclib], the “CTG-3D luminescence at 96 h” value is reported as 1.39.
